From article PMC2878602 (Fems Yeast Research, 2010)

Experiments:
[1] = molecular target: T1, Agt1 (AGT1 from ale strain A60) (Saccharomyces cerevisiae, UniProt P53048); test: inhibition of […]-maltose uptake into intact yeast transformants; assay type: cell-based
T1 sequence (P53048 1-616): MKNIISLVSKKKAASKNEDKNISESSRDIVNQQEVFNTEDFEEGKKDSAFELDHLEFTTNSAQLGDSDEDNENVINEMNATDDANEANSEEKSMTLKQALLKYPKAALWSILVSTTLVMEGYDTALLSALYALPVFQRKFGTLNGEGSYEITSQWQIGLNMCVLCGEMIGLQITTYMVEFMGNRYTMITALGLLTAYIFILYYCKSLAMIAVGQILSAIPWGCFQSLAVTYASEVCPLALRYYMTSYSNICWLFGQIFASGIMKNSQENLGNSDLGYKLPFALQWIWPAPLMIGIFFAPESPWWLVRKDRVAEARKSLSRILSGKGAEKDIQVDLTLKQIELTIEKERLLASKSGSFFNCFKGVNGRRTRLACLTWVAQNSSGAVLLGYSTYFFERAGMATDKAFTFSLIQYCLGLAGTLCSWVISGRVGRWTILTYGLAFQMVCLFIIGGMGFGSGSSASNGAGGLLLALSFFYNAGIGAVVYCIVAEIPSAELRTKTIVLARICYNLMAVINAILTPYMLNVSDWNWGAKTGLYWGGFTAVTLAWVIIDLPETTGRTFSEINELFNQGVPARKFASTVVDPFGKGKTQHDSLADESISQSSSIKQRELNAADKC

[2] = molecular target: T2, Agt1 (AGT1 from ale strain A179) (Saccharomyces cerevisiae, UniProt P53048); test: as above; assay type: cell-based
T2 sequence (P53048 1-616): T1 sequence (P53048 1-616)

[3] = read-out: % inhibition at 50 mM
[4] = read-out: % inhibition at 75 mM

| inhibition at 50000 µM [1, 3] [%] | inhibition at 50000 µM [2, 3] [%] | inhibition at 75000 µM [1, 4] [%] | inhibition at 75000 µM [2, 4] [%] | SMILES |
| --- | --- | --- | --- | --- |
| 85 | 79 |  |  | OC[C@H]1O[C@H](O[C@H]2[C@H](O)[C@@H](O)[C@@H](O[C@H]3[C@H](O)[C@@H](O)C(O)O[C@@H]3CO)O[C@@H]2CO)[C@H](O)[C@@H](O)[C@@H]1O (stereo partly shown) [maltotriose] |
|  |  | 94 | 85 | OC[C@H]1O[C@H](O[C@H]2O[C@H](CO)[C@@H](O)[C@H](O)[C@H]2O)[C@H](O)[C@@H](O)[C@@H]1O [trehalose] |
